Experimental data: patent US20260042764A1, “COMPOSITIONS AND METHODS FOR INHIBITION OF KRAS” (TheRas, Inc., priority 2022, published 2026)
Where two headings read alike, the source gives them in different places.

Key:
[1] = tested on: HPAC cells (KRAS G12D); experiment: Cell-based pERK HTRF assay in HPAC cells (Biological Example 5)
Description: (§1) Biological Example 5: Cell-based PERK HTRF assay in AsPC-1, SW1900, HPAC, Capan-2, RKN, H358, HCT116, KP-2, H1573, A549, MKN1, and HT1080 cells
(§2) The inhibition of ERK phosphorylation, as measured using the HTRF Advanced Phospho-ERK 1/2 (Thr202/Tyr204) Detection Assay kit (Perkin Elmer), was used to determine the effectiveness of test compounds in disrupting KRAS-driven protein/effector signaling in cells.
(§3) On day 1, cells were seeded into 96-well plates at 2.5×10^4 cells/well in 100 μL of complete growth media supplemented with 10% fetal bovine serum (FBS) and incubated at 37° C., in the presence of 5% CO2.
(§4) On day 2, cells were treated with compounds diluted in DMSO at 0.25% final DMSO concentration. Compounds were dosed in a 9-point concentration curve with three-fold dilution between concentrations. Cells were incubated in the presence of compound for two hours at 37° C. Following this treatment period, cells were harvested by aspirating the media, adding 40 μL of kit-supplied 1x lysis buffer per well, and shaking for 30 minutes at 250 rpm at room temperature.
(§5) Following cell lysis, samples were homogenized by pipetting up and down twenty times and 16 μL of cell lysate per well was transferred from the 96-well cell culture plate to two wells of a 384-well detection plate. A complete detection buffer was prepared by diluting D2 and Eu Cryptate antibodies 1:20 in kit-provided detection solution, 4 μL of complete detection buffer was then added to each well with lysate. Plates were incubated with gentle rocking for 24 hours at 4° C.
(§6) Following this incubation period, plates were centrifuged at 500×g for one minute and analyzed on a CLARIOstar plate reader. Data was imported into Microsoft Excel and the signal from the 665 nm channel was divided by the signal from the 620 nm channel. % pERK was calculated as: […]
(§7) Data was imported to the Prism software package (Graphpad) and EC50 values were calculated using the log (inhibitor) vs, response—variable slopc (Four parameters) model.

[2] = tested on: Capan-2 cells (KRAS G12V); experiment: 3D Cell viability assay in Capan-2 cells (Biological Example 6); format: cell-based; conditions: Capan-2 (KRAS G12V) spheroids, 72 hours
Description: (§8) Biological Example 6: 3D Cell viability assay in AsPC-1, SW1900, HPAC, Capan-2, RKN, H358, HCT116, KP-2, H1573, A549, MKN1, and HT1080 cells
(§9) The inhibition of cellular viability as a result of test compound treatment in a spheroid assay was measured using the CellTiter-Glow 3D Cell Viability Assay (Promega).
(§10) On Day 1, 1000 cells per well were seeded in 150 μL of complete growth media supplemented with 10% fetal bovine serum (FBS) and incubated at 37° C., in the presence of 5% CO2 in 96-well ultra-low attachment microplates (Corning) for 48 hours undisturbed to allow spheroids to form.
(§11) Following spheroid formation, cells were treated with compounds diluted in DMSO at 0.25% final DMSO concentration. Compounds were dosed in a 9-point concentration curve with three-fold dilution between concentrations. Cells were incubated in the presence of compound for 72 hours at 37° C., in the presence of 5% CO2.
(§12) Following this incubation period, the kit-provided CTG reagent was allowed to equilibrate for 30 minutes at room temperature, 150 μL of equilibrated CTG reagent was added to each well, and the plate was sealed before shaking at 250 rpm for 10 minutes at room temperature to lyse the cells, 150 μL of lysate per well was transferred to a 96-well plate and luminescence was read on a CLARIOstar plate reader.
(§13) Data was imported into the Prism software package (Graphpad) and EC50 values were calculated using the log (inhibitor) vs, response—variable slope (Four parameters) model.

[3] = tested on: HCT116 cells (KRAS G13D); experiment: 3D Cell viability assay in HCT116 cells (Biological Example 6); format: cell-based; conditions: HCT116 (KRAS G13D) spheroids, 72 hours
Description: as §8, §9, §10, §11, §12, §13

[4] = tested on: MKN1 cells (KRAS amplification); experiment: Cell-based pERK HTRF assay in MKN1 cells (Biological Example 5)
Description: as §1, §2, §3, §4, §5, §6, §7

[5] = tested on: Capan-2 cells (KRAS G12V); experiment: Cell-based pERK HTRF assay in Capan-2 cells (Biological Example 5)
Description: as §1, §2, §3, §4, §5, §6, §7

[6] = tested on: SW1900 cells (KRAS G12D); experiment: Cell-based pERK HTRF assay in SW1900 cells (Biological Example 5)
Description: as §1, §2, §3, §4, §5, §6, §7

[7] = tested on: SW1900 cells (KRAS G12D); experiment: 3D Cell viability assay in SW1900 cells (Biological Example 6); format: cell-based; conditions: SW1990 (text: SW1900, KRAS G12D) spheroids, 72 hours
Description: as §8, §9, §10, §11, §12, §13

[8] = tested on: MKN1 cells (KRAS amplification); experiment: 3D Cell viability assay in MKN1 cells (Biological Example 6); format: cell-based; conditions: MKN (MKN1, KRAS amplification) spheroids, 72 hours
Description: as §8, §9, §10, §11, §12, §13

[9] = tested on: HT1080 cells (NRAS); experiment: 3D Cell viability assay in HT1080 cells (Biological Example 6); format: cell-based; conditions: Homo sapiens, HT-1080; HT1080 (NRAS) spheroids, 72 hours
Description: as §8, §9, §10, §11, §12, §13

[10] = tested on: A549 cells (KRAS G12S); experiment: Cell-based pERK HTRF assay in A549 cells (Biological Example 5); conditions: Homo sapiens
Description: as §1, §2, §3, §4, §5, §6, §7

[11] = tested on: AsPC-1 cells (KRAS G12D); experiment: Cell-based pERK HTRF assay in AsPC-1 cells (Biological Example 5)
Description: as §1, §2, §3, §4, §5, §6, §7

[12] = tested on: HT1080 cells (NRAS); experiment: Cell-based pERK HTRF assay in HT1080 cells (Biological Example 5); conditions: Homo sapiens, HT-1080
Description: as §1, §2, §3, §4, §5, §6, §7

[13] = tested on: H1573 cells (KRAS G12A); experiment: 3D Cell viability assay in H1573 cells (Biological Example 6); format: cell-based; conditions: Homo sapiens, NCI-H1573; H1573 (KRAS G12A) spheroids, 72 hours
Description: as §8, §9, §10, §11, §12, §13

[14] = tested on: HCT116 cells (KRAS G13D); experiment: Cell-based pERK HTRF assay in HCT116 cells (Biological Example 5)
Description: as §1, §2, §3, §4, §5, §6, §7

[15] = tested on: H1573 cells (KRAS G12A); experiment: Cell-based pERK HTRF assay in H1573 cells (Biological Example 5); conditions: Homo sapiens, NCI-H1573
Description: as §1, §2, §3, §4, §5, §6, §7

[16] = tested on: A549 cells (KRAS G12S); experiment: 3D Cell viability assay in A549 cells (Biological Example 6); format: cell-based; conditions: Homo sapiens; A549 (KRAS G12S) spheroids, 72 hours
Description: as §8, §9, §10, §11, §12, §13

[17] = tested on: RKN cells (KRAS G12V); experiment: 3D Cell viability assay in RKN cells (Biological Example 6); format: cell-based; conditions: RKN (KRAS G12V) spheroids, 72 hours
Description: as §8, §9, §10, §11, §12, §13

[18] = Homo sapiens, MKN-1, MKN cells (MKN1, KRAS amplification)
[19] = Homo sapiens, Capan-2, Capan-2 (KRAS G12V) cells
[20] = Homo sapiens, SW1990, SW1990 cells (text: SW1900, KRAS G12D)
[21] = MKN cells (MKN1, KRAS amplification)
[22] = SW1990 cells (text: SW1900, KRAS G12D)

IC50 ([1]; Homo sapiens, HPAC)	IC50 ([3]; Homo sapiens, HCT-116)	IC50 [4, 18]	IC50 [5, 19]	IC50 [6, 20]	IC50 ([7]; Homo sapiens)	IC50 ([8]; Homo sapiens, MKN-1)	IC50 [9]	IC50 [10]	IC50 [12]	IC50 [13]	IC50 ([14]; Homo sapiens, HCT-116)	IC50 [15]	IC50 [16]	IC50 [1]	IC50 [4, 21]	IC50 ([5]; Capan-2 (KRAS G12V) cells)	IC50 [6, 22]	Structure (SMILES)	IC50 ([2]; Homo sapiens)	IC50 [2]	other results
	100 to 1000 nM													≤ 100 nM	≤ 100 nM	≤ 100 nM	≤ 100 nM	Cc1c(C(=O)N(C)C)nn2c1CN(c1nc(OC[C@@]34CCCN3C[C@H](F)C4)nc3c(F)c(-c4ccc(F)c5sc(N)c(C#N)c45)c(C(F)(F)F)cc13)CC2 (atropisomer, axis not shown; (aS)) [Compound 590, 5-((S)-7-(2-amino-3-cyano-7-fluorobenzo[b]thiophen-4-yl)-8-fluoro-2-(((2R,7aS)-2-fluorotetrahydro-1H-pyrrolizin-7a(5H)-yl)methoxy)-6-(trifluoromethyl)quinazolin-4-yl)-N,N,3-trimethyl-4,5,6,7-tetrahydropyrazolo[1,5-a]pyrazine-2-carboxamide]		≤ 100 nM	IC50 [7]: ≤ 100 nM; IC50 [8]: ≤ 100 nM; IC50 [17]: ≤ 100 nM; IC50 ([11]; AsPC-1 (KRAS G12D) cells): ≤ 100 nM
≤ 100 nM	≤ 100 nM		≤ 100 nM	≤ 100 nM	≤ 100 nM		> 1000 nM	100 to 1000 nM	> 1000 nM	≤ 100 nM	≤ 100 nM	≤ 100 nM	≤ 100 nM					N#Cc1c(N)sc2c(F)ccc(-c3c(C(F)(F)F)cc4c(N5CCCOCC5)nc(OC[C@@]56CCCN5C[C@H](F)C6)nc4c3F)c12 [Compound 232]			

Continued, compound first:

Structure (SMILES)	IC50 ([1]; Homo sapiens, HPAC)	IC50 ([3]; Homo sapiens, HCT-116)	IC50 [4, 18]	IC50 [5, 19]	IC50 [6, 20]	IC50 ([7]; Homo sapiens)	IC50 ([8]; Homo sapiens, MKN-1)	IC50 [9]	IC50 [10]	IC50 [12]	IC50 [13]	IC50 ([14]; Homo sapiens, HCT-116)	IC50 [15]	IC50 [16]	IC50 [1]	IC50 [4, 21]	IC50 ([5]; Capan-2 (KRAS G12V) cells)	IC50 [6, 22]	IC50 ([2]; Homo sapiens)	IC50 [2]	other results
CN(Cc1cccnc1N)c1nc(OC[C@@]23CCCN2C[C@H](F)C3)nc2c(F)c(-c3ccc(F)c4sc(N)c(C#N)c34)c(C(F)(F)F)cc12 [Compound 390]	≤ 100 nM	100 to 1000 nM	≤ 100 nM	≤ 100 nM	≤ 100 nM	≤ 100 nM	≤ 100 nM	> 1000 nM	≤ 100 nM	> 1000 nM									≤ 100 nM		IC50 ([11]; Homo sapiens, ASPC1, AsPC-1 (KRAS G12D) cells): ≤ 100 nM
CCN(c1nc(OC[C@@]23CCCN2C[C@H](F)C3)nc2c(F)c(-c3ccc(F)c4sc(N)c(C#N)c34)c(Cl)cc12)[C@@H]1CCN(C(=O)C2CC2)[C@@H]1C [Compound 337]	≤ 100 nM	100 to 1000 nM	≤ 100 nM	≤ 100 nM	≤ 100 nM	≤ 100 nM	≤ 100 nM	> 1000 nM	100 to 1000 nM	> 1000 nM	≤ 100 nM	≤ 100 nM	≤ 100 nM	≤ 100 nM					100 to 1000 nM		
CCN(c1nc(OCC23CCCN2CC(F)C3)nc2c(F)c(-c3ccc(F)c4sc(N)c(C#N)c34)c(C(F)(F)F)cc12)C1CC(C)N(C(=O)C2CC2(F)F)C1 (stereo not shown) [Compound 732]															≤ 100 nM	≤ 100 nM	≤ 100 nM	≤ 100 nM		≤ 100 nM	IC50 [3]: 100 to 1000 nM; IC50 [14]: ≤ 100 nM; IC50 [7]: ≤ 100 nM; IC50 [8]: ≤ 100 nM; IC50 [17]: ≤ 100 nM
N#Cc1c(N)sc2c(F)ccc(-c3c(C(F)(F)F)cc4c(N5CCOCC5)nc(OC[C@@]56CCCN5C[C@H](F)C6)nc4c3F)c12 (single isomer, unassigned) [Compound 198]	100 to 1000 nM	≤ 100 nM	≤ 100 nM	≤ 100 nM	≤ 100 nM		≤ 100 nM	> 1000 nM	100 to 1000 nM	> 1000 nM	≤ 100 nM	≤ 100 nM	≤ 100 nM	≤ 100 nM					≤ 100 nM		
